# Measurements published in article PMC9838390, “Discovery and biosynthesis of karnamicins as angiotensin converting enzyme inhibitors” (Nature Communications, 2023).
# “And” between values parts separate entries of the source, which are not always exact repeats. Equal entries are not always repeated.
# Columns and labels:
# KnmB1 [1] = test: Hydrogen peroxide formation assay of KnmB1 and variants; format: biochemical, L. rhizosphaerae NEAU-A2; conditions: 30 °C, average of 3
# Description: Hydrogen peroxide formation assay and NADPH oxidation
# The hydrogen peroxide formed from KnmB1, KnmB2 and their variants were measured using the Hydrogen Peroxide Assay Kit (Beyotime Industrial Co. Ltd, Shanghai, China)4-5. 5–100 µL of enzyme reaction mixture was added to 100 µL of working reagent (S0038-1). The mixture was incubated for 30 min at 25 °C, at which time the absorbance at 560 nm was measured by NanoDrop 2000c (Fisher Scientific). […]
# (§1) Spectral data for new compounds […]
# Supplementary Figure 131. H2O2 generation and NADPH oxidation for KnmB2, KnmB1 and their variants. (a) Hydrogen peroxide formation of KnmB2 and variants. […]
# (b) Hydrogen peroxide formation of KnmB1 and variants. Reaction conditions: 100 µL system containing 50 mM Tris-HCl buffer (pH 7.5), 1 mM NADPH, 16 μM KnmB2, 17 μM KnmB1 or variants, 0.1 mM compound 24,1 mM SAM, and 2 […]
# (1 picture or pasted object on this page, not shown here) […]
# μM KnmF at 30 °C for 3h. (c) Hydrogen peroxide formation of KnmB1 and variants.
# Reaction conditions: 100µL system containing 50 mM Tris-HCl buffer (pH 7.5), 0.3 mM NADPH, and 6 μM KnmB1 or variants, or 0.1 mM 24 at 30 °C for 30 min. […]
# (§2) 2 μM KnmB2 or variants, or 0.1 mM substrate 24/32. […]
# (§3) Source data are provided as a Source Data file. […]
# KnmB1 [2] = test: NADPH oxidation of KnmB1 and variants (340 nm); format: biochemical, L. rhizosphaerae NEAU-A2; conditions: KnmB1 + compound
# Description: Hydrogen peroxide formation assay and NADPH oxidation […]
# NADPH detection was carried out in the cuvette by NanoDrop 2000c (Fisher Scientific). NADPH signal at 340 nm was monitored in time using 6220 M–1 cm–1 as […]
# as §1
# Reaction conditions: 50 mM Tris-HCl buffer (pH 7.5), 0.15 mM NADPH, and 2 μM KnmB1 or KnmB2. (e) NADPH oxidation of KnmB1 and variants. (f) NADPH oxidation of KnmB1 in the presence 24/32/36. (g) NADPH oxidation of KnmB1 and variants in the presence 24. Reaction conditions (e-g) for KnmB1 and their variants: 50 mM Tris-HCl buffer (pH 7.5), 0.15 mM NADPH, and 6 μM KnmB1 or variants, or 0.1 mM substrate 24/32/36. […]
# as §2, §3
structure (smiles),measurement,setting,value
COc1cc(-c2csc(CCCC(C)=O)n2)nc(C(N)=O)c1O [Compound 36],"hydrogen peroxide formation of KnmB1 (absorbance UV λ=560 nm), average value","KnmB1 [1]; Fig. S131b, 1 mM NADPH, 17 μM KnmB1, 0.1 mM compound, 3 h",0.0940
same,"hydrogen peroxide formation of KnmB1 (absorbance UV λ=560 nm), average value","KnmB1 [1]; Fig. S131c, 0.3 mM NADPH, 6 μM KnmB1, 0.1 mM compound, 30 min",0.0678
same,"NADPH oxidation of KnmB1 in the presence of compound (replicates 1, 2, 3)",KnmB1 [2]; Time 0,0.0000 µM
same,"NADPH oxidation of KnmB1 in the presence of compound, average value",KnmB1 [2]; Time 0,0.0000 µM
same,"NADPH oxidation of KnmB1 in the presence of compound (replicates 1, 2, 3)",KnmB1 [2]; Time 1,2.6688 µM and 1.0450 µM and 0.7235 µM
same,"NADPH oxidation of KnmB1 in the presence of compound, average value",KnmB1 [2]; Time 1,1.4791 µM
same,"NADPH oxidation of KnmB1 in the presence of compound (replicates 1, 2, 3)",KnmB1 [2]; Time 2,3.7942 µM and 2.2669 µM and 1.4470 µM
same,"NADPH oxidation of KnmB1 in the presence of compound, average value",KnmB1 [2]; Time 2,2.5027 µM
same,"NADPH oxidation of KnmB1 in the presence of compound (replicates 1, 2, 3)",KnmB1 [2]; Time 3,3.7460 µM and 2.5241 µM and 4.3730 µM
same,"NADPH oxidation of KnmB1 in the presence of compound, average value",KnmB1 [2]; Time 3,3.5477 µM
same,"NADPH oxidation of KnmB1 in the presence of compound (replicates 1, 2, 3)",KnmB1 [2]; Time 4,4.9196 µM and 2.5241 µM and 5.4662 µM
same,"NADPH oxidation of KnmB1 in the presence of compound, average value",KnmB1 [2]; Time 4,4.3033 µM
same,"NADPH oxidation of KnmB1 in the presence of compound (replicates 1, 2, 3)",KnmB1 [2]; Time 5,4.7428 µM and 3.0064 µM and 5.6752 µM
same,"NADPH oxidation of KnmB1 in the presence of compound, average value",KnmB1 [2]; Time 5,4.4748 µM
same,"NADPH oxidation of KnmB1 in the presence of compound (replicates 1, 2, 3)",KnmB1 [2]; Time 8,5.8360 µM and 3.0064 µM and 8.0225 µM
same,"NADPH oxidation of KnmB1 in the presence of compound, average value",KnmB1 [2]; Time 8,5.6217 µM
same,"NADPH oxidation of KnmB1 in the presence of compound (replicates 1, 2, 3)",KnmB1 [2]; Time 10,7.2669 µM and 6.4791 µM and 10.8521 µM
same,"NADPH oxidation of KnmB1 in the presence of compound, average value",KnmB1 [2]; Time 10,8.1994 µM
same,"NADPH oxidation of KnmB1 in the presence of compound (replicates 1, 2, 3)",KnmB1 [2]; Time 15,7.5080 µM and 6.4791 µM and 13.8264 µM
same,"NADPH oxidation of KnmB1 in the presence of compound, average value",KnmB1 [2]; Time 15,9.2712 µM
same,"NADPH oxidation of KnmB1 in the presence of compound (replicates 1, 2, 3)",KnmB1 [2]; Time 20,10.4502 µM and 12.1865 µM and 17.0257 µM
same,"NADPH oxidation of KnmB1 in the presence of compound, average value",KnmB1 [2]; Time 20,13.2208 µM
same,"NADPH oxidation of KnmB1 in the presence of compound (replicates 1, 2, 3)",KnmB1 [2]; Time 30,12.4116 µM and 12.1865 µM and 21.2701 µM
same,"NADPH oxidation of KnmB1 in the presence of compound, average value",KnmB1 [2]; Time 30,15.2894 µM
same,"NADPH oxidation of KnmB1 in the presence of compound (replicates 1, 2, 3)",KnmB1 [2]; Time 40,13.9068 µM and 22.9261 µM and 27.0579 µM
same,"NADPH oxidation of KnmB1 in the presence of compound, average value",KnmB1 [2]; Time 40,21.2969 µM
same,"NADPH oxidation of KnmB1 in the presence of compound (replicates 1, 2, 3)",KnmB1 [2]; Time 60,18.0547 µM and 22.9261 µM and 35.3698 µM
same,"NADPH oxidation of KnmB1 in the presence of compound, average value",KnmB1 [2]; Time 60,25.4502 µM
